In this assay the target is PAFR (Homo sapiens, UniProt P25105). In words: PAF Binding Assay (PAFR binding).
Chain of PAFR (P25105 whole entry): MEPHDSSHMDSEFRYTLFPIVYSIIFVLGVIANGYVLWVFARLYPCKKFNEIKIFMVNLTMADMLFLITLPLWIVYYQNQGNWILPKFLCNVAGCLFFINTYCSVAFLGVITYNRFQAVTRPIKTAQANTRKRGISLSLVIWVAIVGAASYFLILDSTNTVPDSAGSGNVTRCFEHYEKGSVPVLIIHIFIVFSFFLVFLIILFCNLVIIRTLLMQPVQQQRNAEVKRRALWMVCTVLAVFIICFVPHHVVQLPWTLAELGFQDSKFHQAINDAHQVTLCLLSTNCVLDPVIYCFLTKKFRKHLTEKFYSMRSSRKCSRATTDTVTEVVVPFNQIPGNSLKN
In the case of `O=S(=O)(N[C@H]1CCC[C@@H](n2cnnc2)C1)c1cc(-c2ccn3nccc3n2)cc(C(F)(F)F)c1` [Compound 3Aak, 3-pyrazolo[1,5-a]pyrimidin-5-yl-N-[(1S,3R)-3-(4H-1,2,4-triazol-4-yl)cyclohexyl]-5-(trifluoromethyl)benzenesulfonamide], the IC50 (commonly the concentration that inhibits the measured activity by half) came out at 3.6 nM. With `O=S(=O)(N[C@H]1CCC[C@@H](n2cnnc2)C1)c1cc(-c2ccn3ncnc3c2)cc(C(F)(F)F)c1` [Compound 3Aal, 3-[1,2,4]triazolo[1,5-a]pyridin-7-yl-N-[(1S,3R)-3-(4H-1,2,4-triazol-4-yl)cyclohexyl]-5-(trifluoromethyl)benzenesulfonamide] the figure was 42 nM.

As for `O=S(=O)(N[C@H]1CCC[C@@H](n2cnnc2)C1)c1cc(-c2cccnc2OCC(F)(F)F)cc(C(F)(F)F)c1` [Compound 3Aam, N-[(1S,3R)-3-(4H-1,2,4-triazol-4-yl)cyclohexyl]-3-[2-(2,2,2-trifluoroethoxy)pyridin-3-yl]-5-(trifluoromethyl)benzenesulfonamide], the concentration for half-maximal inhibition (IC50) worked out at 3.2 nM. This IC50 is about 13-fold lower than that of the molecule before. Then `O=S(=O)(N[C@H]1CCC[C@@H](n2cnnc2)C1)c1cc(-c2ccc3nc(C4CC4)nn3c2)cc(C(F)(F)F)c1` [Compound 3Aaq, 3-(2-cyclopropyl[1,2,4]triazolo[1,5-a]pyridin-6-yl)-N-[(1S,3R)-3-(4H-1,2,4-triazol-4-yl)cyclohexyl]-5-(trifluoromethyl)benzenesulfonamide], with 20 nM. The molecule `O=S(=O)(N[C@H]1CCC[C@@H](n2cnnc2)C1)c1cc(-c2ccsc2)cc(C(F)(F)F)c1` [Compound 3Aar, 3-(3-thienyl)-N-[(1S,3R)-3-(4H-1,2,4-triazol-4-yl)cyclohexyl]-5-(trifluoromethyl)benzenesulfonamide] gave an IC50 of 9.2 nM. Against the preceding molecule, the IC50 is about 2.2-fold lower. As to `O=S(=O)(N[C@H]1CCC[C@@H](n2cnnc2)C1)c1cc(-c2cccs2)cc(C(F)(F)F)c1` [Compound 3Aas, 3-(2-thienyl)-N-[(1S,3R)-3-(4H-1,2,4-triazol-4-yl)cyclohexyl]-5-(trifluoromethyl)benzenesulfonamide], the IC50 came to 3.8 nM. Turning to `O=S(=O)(N[C@H]1CCC[C@@H](n2cnnc2)C1)c1cc(-c2cc(Cl)cn3ccnc23)cc(C(F)(F)F)c1` [Compound 3Aat, 3-(6-chloroimidazo[1,2-a]pyridin-8-yl)-N-[(1S,3R)-3-(4H-1,2,4-triazol-4-yl)cyclohexyl]-5-(trifluoromethyl)benzenesulfonamide], the half-inhibitory concentration (IC50) came to 2.7 nM. The IC50 values of the last two molecules are within 1.5-fold of each other. Then `O=S(=O)(N[C@H]1CCC[C@@H](n2cnnc2)C1)c1cc(-c2cccn3ccnc23)cc(C(F)(F)F)c1` [Compound 3Aau, 3-imidazo[1,2-a]pyridin-8-yl-N-[(1S,3R)-3-(4H-1,2,4-triazol-4-yl)cyclohexyl]-5-(trifluoromethyl)benzenesulfonamide], with 1.4 nM; and `O=S(=O)(N[C@H]1CCC[C@@H](n2cnnc2)C1)c1cc(-c2cc(Cl)cn3cc(CCl)nc23)cc(C(F)(F)F)c1` [Compound 3Aav, 3-[6-chloro-2-(chloromethyl)imidazo[1,2-a]pyridin-8-yl]-N-[(1S,3R)-3-(4H-1,2,4-triazol-4-yl)cyclohexyl]-5-(trifluoromethyl)benzenesulfonamide], with 22 nM; and `CCOC(=O)c1cn2cc(Cl)cc(-c3cc(C(F)(F)F)cc(S(=O)(=O)N[C@H]4CCC[C@@H](n5cnnc5)C4)c3)c2n1` [Compound 3Aaw, ethyl 6-chloro-8-[3-({[(1S,3R)-3-(4H-1,2,4-triazol-4-yl)cyclohexyl]amino}sulfonyl)-5-(trifluoromethyl)phenyl]imidazo[1,2-a]pyridine-2-carboxylate], with 0.5 nM.

With `Cc1nncn1[C@@H]1CCC[C@H](NS(=O)(=O)c2cc(-c3ccc(F)cc3)cc(C(F)(F)F)c2)C1` [Compound 3Ab, 4′-fluoro-N-[(1S,3R)-3-(3-methyl-4H-1,2,4-triazol-4-yl)cyclohexyl]-5-(trifluoromethyl)biphenyl-3-sulfonamide], the IC50 turned out to be 4.8 nM.

The molecule `O=S(=O)(N[C@H]1CCC[C@@H](n2cnnc2)C1)c1cc(-c2ccc(F)cc2)cc(C(F)(F)F)c1` [Compound 3Ac, 4′-fluoro-N-[(1S,3R)-3-(4H-1,2,4-triazol-4-yl)cyclohexyl]-5-(trifluoromethyl)biphenyl-3-sulfonamide] had a half-maximal inhibitory concentration (IC50) of 6.2 nM. With `O=S(=O)(N[C@H]1CCC[C@@H](n2cnnc2)C1)c1cc(-c2ccccc2)cc(C(F)(F)F)c1` [Compound 3Ae, N-[(1S,3R)-3-(4H-1,2,4-triazol-4-yl)cyclohexyl]-5-(trifluoromethyl)biphenyl-3-sulfonamide] the figure was 5.9 nM; with `COc1ccc(-c2cc(C(F)(F)F)cc(S(=O)(=O)N[C@H]3CCC[C@@H](n4cnnc4)C3)c2)cn1` [Compound 3Af, 3-(6-methoxypyridin-3-yl)-N-[(1S,3R)-3-(4H-1,2,4-triazol-4-yl)cyclohexyl]-5-(trifluoromethyl)benzenesulfonamide], 4.2 nM. In turn, `COc1ncccc1-c1cc(C(F)(F)F)cc(S(=O)(=O)N[C@H]2CCC[C@@H](n3cnnc3)C2)c1` [Compound 3Ag, 3-(2-methoxypyridin-3-yl)-N-[(1S,3R)-3-(4H-1,2,4-triazol-4-yl)cyclohexyl]-5-(trifluoromethyl)benzenesulfonamide] displayed an IC50 of 4.5 nM. In turn, `O=S(=O)(N[C@H]1CCC[C@@H](n2cnnc2)C1)c1cc(-c2noc(C3CC3)n2)cc(C(F)(F)F)c1` [Compound 3Ah, 3-(5-cyclopropyl-1,2,4-oxadiazol-3-yl)-N-[(1S,3R)-3-(4H-1,2,4-triazol-4-yl)cyclohexyl]-5-(trifluoromethyl)benzenesulfonamide] displayed an IC50 of 7.8 nM.

`O=S(=O)(N[C@H]1CCC[C@@H](n2cnnc2)C1)c1cc(-c2ccc(O)nc2)cc(C(F)(F)F)c1` [Compound 3Ai, 3-(6-hydroxypyridin-3-yl)-N-[(1S,3R)-3-(4H-1,2,4-triazol-4-yl)cyclohexyl]-5-(trifluoromethyl)benzenesulfonamide] displayed a half-maximal inhibitory concentration (IC50) of 526 nM.

In turn, `O=S(=O)(N[C@H]1CCC[C@@H](n2cnnc2)C1)c1cc(-c2cccnc2O)cc(C(F)(F)F)c1` [Compound 3Aj, 3-(2-hydroxypyridin-3-yl)-N-[(1S,3R)-3-(4H-1,2,4-triazol-4-yl)cyclohexyl]-5-(trifluoromethyl)benzenesulfonamide] displayed an IC50 of 12 nM. With `O=S(=O)(N[C@H]1CCC[C@@H](n2cnnc2)C1)c1cc(-c2ccc(C(F)(F)F)cc2)cc(C(F)(F)F)c1` [Compound 3Al, N-[(1S,3R)-3-(4H-1,2,4-triazol-4-yl)cyclohexyl]-4′,5-bis(trifluoromethyl)biphenyl-3-sulfonamide] the figure was 8.1 nM. As for `O=S(=O)(N[C@H]1CCC[C@@H](n2cnnc2)C1)c1cc(-c2ccccc2OC(F)(F)F)cc(C(F)(F)F)c1` [Compound 3Am, N-[(1S,3R)-3-(4H-1,2,4-triazol-4-yl)cyclohexyl]-2′-(trifluoromethoxy)-5-(trifluoromethyl)biphenyl-3-sulfonamide], the concentration for half-maximal inhibition (IC50) was determined as 4.9 nM. With `O=S(=O)(N[C@H]1CCC[C@@H](n2cnnc2)C1)c1cc(-c2ccncc2)cc(C(F)(F)F)c1` [Compound 3An, 3-pyridin-4-yl-N-[(1S,3R)-3-(4H-1,2,4-triazol-4-yl)cyclohexyl]-5-(trifluoromethyl)benzenesulfonamide], the IC50 was 36 nM. `O=S(=O)(N[C@H]1CCC[C@@H](n2cnnc2)C1)c1cc(-c2cccc3ccccc23)cc(C(F)(F)F)c1` [Compound 3Ao, 3-(1-naphthyl)-N-[(1S,3R)-3-(4H-1,2,4-triazol-4-yl)cyclohexyl]-5-(trifluoromethyl)benzenesulfonamide] gave an IC50 of 15 nM.

`O=S(=O)(N[C@H]1CCC[C@@H](n2cnnc2)C1)c1cc(-c2ccc3ncccc3c2)cc(C(F)(F)F)c1` [Compound 3Ap, 3-quinolin-6-yl-N-[(1S,3R)-3-(4H-1,2,4-triazol-4-yl)cyclohexyl]-5-(trifluoromethyl)benzenesulfonamide] yielded an IC50 of 3.3 nM. With `O=S(=O)(N[C@H]1CCC[C@@H](n2cnnc2)C1)c1cc(-c2cccc3ccsc23)cc(C(F)(F)F)c1` [Compound 3Aq, 3-(1-benzothien-7-yl)-N-[(1S,3R)-3-(4H-1,2,4-triazol-4-yl)cyclohexyl]-5-(trifluoromethyl)benzenesulfonamide] the figure was 7 nM; with `O=S(=O)(N[C@H]1CCC[C@@H](n2cnnc2)C1)c1cc(-c2cccnc2)cc(C(F)(F)F)c1` [Compound 3Ar, 3-pyridin-3-yl-N-[(1S,3R)-3-(4H-1,2,4-triazol-4-yl)cyclohexyl]-5-(trifluoromethyl)benzenesulfonamide], 32 nM.

On to `O=S(=O)(N[C@H]1CCC[C@@H](n2cnnc2)C1)c1cc(-c2cccc(F)c2)cc(C(F)(F)F)c1` [Compound 3As, 3′-fluoro-N-[(1S,3R)-3-(4H-1,2,4-triazol-4-yl)cyclohexyl]-5-(trifluoromethyl)biphenyl-3-sulfonamide], for which the IC50 was found to be 3.9 nM. Molecule `O=S(=O)(N[C@H]1CCC[C@@H](n2cnnc2)C1)c1cc(-c2ccccc2F)cc(C(F)(F)F)c1` [Compound 3At, 2′-fluoro-N-[(1S,3R)-3-(4H-1,2,4-triazol-4-yl)cyclohexyl]-5-(trifluoromethyl)biphenyl-3-sulfonamide] returned a 50% inhibitory concentration (IC50) of 5.4 nM. For `O=S(=O)(N[C@H]1CCC[C@@H](n2cnnc2)C1)c1cc(-c2ccnc(F)c2)cc(C(F)(F)F)c1` [Compound 3Av, 3-(2-fluoropyridin-4-yl)-N-[(1S,3R)-3-(4H-1,2,4-triazol-4-yl)cyclohexyl]-5-(trifluoromethyl)benzenesulfonamide], the IC50 was 15 nM. Against the preceding molecule, the IC50 is about 2.8-fold higher. Then `Nc1cnc(-c2cc(C(F)(F)F)cc(S(=O)(=O)N[C@H]3CCC[C@@H](n4cnnc4)C3)c2)cn1` [Compound 3Aw, 3-(5-aminopyrazin-2-yl)-N-[(1S,3R)-3-(4H-1,2,4-triazol-4-yl)cyclohexyl]-5-(trifluoromethyl)benzenesulfonamide], with 6.6 nM; and `O=S(=O)(N[C@H]1CCC[C@@H](n2cnnc2)C1)c1cc(-c2cccc(F)n2)cc(C(F)(F)F)c1` [Compound 3Ax, 3-(6-fluoropyridin-2-yl)-N-[(1S,3R)-3-(4H-1,2,4-triazol-4-yl)cyclohexyl]-5-(trifluoromethyl)benzenesulfonamide], with 4.6 nM.

Source of the values: patent publication US9029377B2, “Platelet-activating factor receptor antagonists” (Merck Sharp & Dohme Corp., priority 2009, dated 2015).
